Key:
[1] = target: T1, E. coli-expressed (recombinant) coniferin beta-glucosidase (CBG) (Pinus contorta, UniProt Q9ZT64); experiment: β-glucosidase assay, substrate specificity of E. coli-expressed CBG-cDNA; format: biochemical; details: substrate hydrolysis relative to coniferin; 100% activity represents 22pKat; 2 mM glucoside substrate, 0.2M MES pH 5.5, 30° C., 30 min
T1 construct: coding region for the mature protein (i.e. excluding the signal peptide) was amplified; Met-Ala-Ser (three non-CBG vector residues) (N); made in house; host or cells: E. coli BL21 (DE3), vector pET21a
T1 sequence (Q9ZT64 24-513): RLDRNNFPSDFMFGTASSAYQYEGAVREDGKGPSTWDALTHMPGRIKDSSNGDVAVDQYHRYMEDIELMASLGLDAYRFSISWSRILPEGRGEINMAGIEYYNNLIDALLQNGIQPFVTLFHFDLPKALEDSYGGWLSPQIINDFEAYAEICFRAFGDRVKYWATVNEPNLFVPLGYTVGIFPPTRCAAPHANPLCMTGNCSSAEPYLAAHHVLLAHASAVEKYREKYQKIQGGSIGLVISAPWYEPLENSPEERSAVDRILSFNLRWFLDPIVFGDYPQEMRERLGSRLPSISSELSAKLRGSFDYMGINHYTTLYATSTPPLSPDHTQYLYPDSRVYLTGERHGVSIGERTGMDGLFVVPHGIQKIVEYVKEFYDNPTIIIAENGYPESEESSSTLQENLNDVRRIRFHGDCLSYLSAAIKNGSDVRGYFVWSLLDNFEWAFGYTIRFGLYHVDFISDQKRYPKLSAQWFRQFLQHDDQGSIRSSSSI
Description: To express CBG protein in E. coli, the full- length coding region for the mature protein (i.e. excluding the signal peptide) was amplified using the 3' end clone (1A6) as the template with the N-terminal primer, NT1 (5' […] 3', Seq. I.D. No. 9) containing a 5' Nhe1 site, and a C-terminal primer, CT1 (5' […] 3', Seq. I.D. No. 10) containing a Xho 1 site. The resulting 1.5 kb DNA fragment was ligated into Bluescript II KS by T/A cloning as described above. The structure of the junctions of this construct was confirmed by sequencing and it was then inserted as a Nhe1/Xho1 fragment into expression vector pET21a (Novagen). Because, the Nhe1 site was used to introduce the cDNA into the pET vector, three non-CBG amino acids (Met, Ala, Ser) were added to the N-terminus of the expressed protein. To avoid the expression of the vector His-tag at the 3' end, the native stop codon of CBG was included. The expressed protein was thus identical in sequence to the mature CBG expressed in planta, except for the additional tripeptide at the N-terminus. Following transformation into E.coli strain DH5α and verification of the plasmid integrity by restriction digestion, it was introduced into the expression host BL21 (DE3).
To express CBG, the bacteria were grown to log phase (A600 =0.6-0.9) followed by an additional 2-3 h incubation at 29-37° C. in the presence or absence of 0.4-1 mM IPTG. The expressed CBG in the soluble protein fraction was purified by preparative Q-Sepharose chromatography followed by QMA-Memsep (Millipore) chromatography.
(§1) As noted above, the functional characteristic of the CBG enzyme is its ability to hydrolyze coniferin. This activity can be measured using the simple β-glucosidase assay described by Dharwardhana et al. (1995), conducted as follows: enzyme preparations (10-50 μl) and glucoside substrate (coniferin) (2 mM final concentration) in 0.2M MES, pH 5.5 buffer in a final volume of 150 μl are incubated at 30° C. for 30 min. The reaction is stopped by basification of the assay mixture with an equal volume of 0.5M CAPS buffer (Sigma Chemical Co., St. Louis, Mo., pH 10.5 and the activity measured by determining the absorbance of the released aglycone. The activity of the enzyme can be measured not only against coniferin, but also against related glucosides including 4-NPG, 2-NPG, MUG and the synthetic coniferin analog VRA-G. For quantitative calculations, the following analysis wavelengths and values (mM^-1 ×cm^-1) were used: coniferyl alcohol, 325 nm, ε=7.0; sinapyl alcohol, 315 nm, ε=11.2; 2-nitrophenol, 420 nm, ε=4.55, 4-nitrophenol, 400 nm, ε=19.3; 4-methyl umbelliferone, 360 nm, ε=18.25; VRA-G, 490 nm, ε=38.6; salicyl alcohol, 295 nm, ε=3.3.
Soluble proteins and insoluble proteins (inclusion bodies) prepared from induced and uninduced bacterial cells were assayed for coniferin hydrolysis activity by the method described above. […] The activity in this fraction could be increased up to 2-fold by increasing the IPTG concentration from 0.4 -1.0 mM, and by reducing the growing temperature from 37° C. to 29° C. […] This protein was purified by anion exchange chromatography using coniferin as the substrate for monitoring β-glucosidase activity. The purified enzyme often migrated as a doublet on nondenaturing gels. […] The latter would result in the synthesis of a polypeptide that is truncated at the N-terminus, as opposed to the full-length polypeptide initiated by ribosome binding to the standard ribosome binding site in the vector.

[2] = target: T2, native coniferin beta-glucosidase (CBG) purified from pine xylem (Pinus contorta, UniProt Q9ZT64); experiment: β-glucosidase assay, substrate specificity of coniferin β-glucosidase purified from pine xylem; format: biochemical; details: substrate hydrolysis relative to coniferin; 100% activity represents 14pKat; 2 mM glucoside substrate, 0.2M MES pH 5.5, 30° C., 30 min
T2 construct: from tissue; host or cells: Pinus contorta xylem
T2 sequence (Q9ZT64 24-513): T1 sequence (Q9ZT64 24-513)
Description: Coniferin beta-glucosidase enzyme was purified from Pinus contorta xylem tissue as described by Dharmwardhana et al. (1995). In order to determine the N-terminal amino acid sequence of the purified enzymne, it was run on native PAGE gels, stained for activity on the synthetic coniferin substrate VRA-G and the staining band excised and subjected to SDS-PAGE. The protein was then transferred to an Immobilon membrane for N-terminal amino acid sequencing using an Applied Biosystems 470A gas phase sequencer (Edman degradation).
as §1

Row | Structure (SMILES) | Relative activity, E. coli CBG [1] | Relative activity, Native CBG [2]
1 | O=[N+]([O-])c1ccc(O[C@@H]2O[C@H](CO)[C@@H](O)[C@H](O)[C@H]2O)cc1 [4-nitrophenyl-β-glucoside, 4-nitrophenyl β-glucoside] | 35% | 30%
2 | COc1cc(/C=C/CO)cc(OC)c1O[C@@H]1O[C@H](CO)[C@@H](O)[C@H](O)[C@H]1O [syringin] | 65% | 51%
3 | Cc1cc(=O)oc2cc(O[C@@H]3O[C@H](CO)[C@@H](O)[C@H](O)[C@H]3O)ccc12 [4-methyl umbelliferyl-β-glucoside, 4-methylumbelliferyl β-glucoside] | 20% | 18%
4 | COc1cc(/C=C/CO)ccc1O[C@@H]1O[C@H](CO)[C@@H](O)[C@H](O)[C@H]1O [coniferin] | 100% | 100%
5 | O=[N+]([O-])c1ccccc1O[C@@H]1O[C@H](CO)[C@@H](O)[C@H](O)[C@H]1O [2-nitrophenyl-β-glucoside, 2-nitrophenyl β-glucoside] | 50% | 51%

— patent US5973228A, “Coniferin beta-glucosidase cDNA for modifying lignin content in plants” (University of British Columbia, priority 1998, dated 1999)
